From patent US11999745B2, “Pharmaceutical compounds” (Heptares Therapeutics Limited, priority 2020, dated 2024)
Like-named read-outs stand apart in the source and are kept apart here.

Legend:
[1] = molecular target: T1, human muscarinic M1 receptor (Homo sapiens, UniProt P11229); assay: Alphascreen Surefire phospho-ERK1/2 functional assay, M1; type: cell-based
T1 construct: expressed in transfected cells
T1 sequence (P11229 1-460): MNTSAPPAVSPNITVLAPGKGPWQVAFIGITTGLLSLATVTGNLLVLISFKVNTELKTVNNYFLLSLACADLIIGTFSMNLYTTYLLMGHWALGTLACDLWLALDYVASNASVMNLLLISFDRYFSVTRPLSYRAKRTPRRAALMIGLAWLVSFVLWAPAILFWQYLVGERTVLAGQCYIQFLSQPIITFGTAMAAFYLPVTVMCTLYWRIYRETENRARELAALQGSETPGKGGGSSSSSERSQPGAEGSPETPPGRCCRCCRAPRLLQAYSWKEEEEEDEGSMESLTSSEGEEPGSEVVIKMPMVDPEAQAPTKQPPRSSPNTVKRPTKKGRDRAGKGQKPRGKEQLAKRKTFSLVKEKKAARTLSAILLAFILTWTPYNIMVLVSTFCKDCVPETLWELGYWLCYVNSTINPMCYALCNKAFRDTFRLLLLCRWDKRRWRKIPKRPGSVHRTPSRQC
Description: ERK1/2 phosphorylation is a downstream consequence of both Gq/11 and Gi/o protein coupled receptor activation, making it highly suitable for the assessment of M1, M3 (Gq/11 coupled) and M2, M4 receptors (Gi/o coupled), rather than using different assay formats for different receptor subtypes. CHO cells stably expressing the human muscarinic M1, M2, M3 or M4 receptor were plated (25K/well) onto 96-well tissue culture plates in MEM-alpha+10% dialysed FBS. Once adhered, cells were serum-starved overnight. Agonist stimulation was performed by the addition of 5 μL agonist to the cells for 5 min (37° C.). Media was removed and 50 μL of lysis buffer added.

[2] = test system: scPCP treated female Lister Hooded rats; assay: Attenuation of sub-chronic PCP-induced deficit in the operant reversal learning task; type: in vivo, rat; conditions: p.o., 1 hour ptt
Description: Investigate the ability of Example 1 (1, 3, 10 and 30 mg/kg, p.o., 1 hour pre-treatment time ptt) to attenuate the disruption of a cognitive task induced by sub-chronic treatment with phencyclidine (scPCP) in female Lister Hooded rats.
Female Lister Hooded rats were used for this experiment. The average weight of rats at the time of testing was 294 g±29 g. Rats were housed in groups of 3-5 under standard laboratory conditions under a 12 hr light: dark cycle (lights on at 0700 hr), and food restricted to 90% of free-feeding bodyweight (12 g of food per rat per day). Testing was carried out in the light phase. Rats were randomly assigned to two treatment groups and received vehicle, n=8 (0.9% saline solution, i.p.) or PCP, n=48 (2 mg/kg, i.p. twice daily for 7-days). On the day of testing, rats were randomly assigned to seven treatment groups (n=6-8 per group) to receive an acute treatment with Example 1 (1, 3, 10 and 30 mg/kg, p.o., 1 hour ptt) or vehicle. […]
Following habituation to the operant chambers, rats were trained to respond for food on an FR1 (Fixed Ratio 1) schedule of reinforcement with both levers active. […] Each session lasted 20 minutes and counts were recorded on each lever. […]
The day before each reversal learning task session, a full […] operant training session (as described above) was conducted to ensure stable responding. […] During this period, responses on both correct and incorrect levers were recorded. […] Responses made on the correct and incorrect levers were again recorded. […]
Data are presented as percent correct response (±S.E.M) with values for the initial and reversal phases are presented for the different drug treatment groups (FIG. 2). The percentage correct response data were used to determine whether there was a significant effect of drug on response accuracy (e.g. that might reflect cognitive dysfunction); Statistical significance was assumed when P<0.05 and was determined using one-way ANOVA in order to detect main effect of drug treatment in the initial and reversal phases.

[3] = Fraction unbound (fu) in plasma or brain tissue homogenate; type: in vitro ADME; conditions: parameter used in receptor occupancy prediction
Source text: fu—fraction of compound unbound in plasma or brain tissue homogenate

M1 receptor = molecular target: T2, M1 receptor (Homo sapiens, UniProt P11229); assay: Predicted target engagement for human efficacious dose (allometric scaling)
T2 sequence (P11229 1-460): T1 sequence (P11229 1-460)
Source text: Based on a measured equivalent unbound plasma:brain distribution profile (Kpuu=1) the exposures shown represent those in either the plasma or brain compartment.

[4] = Hepatocyte stability, CLint (in vitro hepatocytes), dog; type: in vitro ADME; conditions: pooled cryopreserved hepatocytes, 1.0 million cells/mL, 37° C., read-out: in vitro intrinsic clearance (CLint)
Description: (§1) Hepatocyte stability assays were performed using pooled cryopreserved hepatocytes (Bioreclamation). Test compounds prepared in DMSO, were incubated at an initial concentration of 1 μM (0.25% DMSO final, n=2) with hepatocytes at cell densities of 1.0 million cells/mL at 37° C. Aliquots were removed at 0.5, 5, 10, 15, 30, 60 and 120 minutes for termination of reactions and compound extraction with acetonitrile containing an analytical internal standard (0.5 μM carbamazepine). Samples were centrifuged and the supernatant fractions analysed for parent compound by mass spectrometry (LC-MS/MS). The amount of compound remaining (expressed as %) was determined from the MS response in each sample relative to that in the T=0 samples (normalised for internal standard). Ln plots of the % remaining were used to determine the half-life for compound disappearance using the relationship: Half-Life(min)=−0.693/λ (where λ is the slope of the Ln % remaining vs time curve).

[5] = Hepatocyte stability, CLint (in vitro hepatocytes), human; type: in vitro ADME; conditions: pooled cryopreserved hepatocytes, 1.0 million cells/mL, 37° C., read-out: in vitro intrinsic clearance (CLint)
Description: as §1

[6] = parameter used in human receptor occupancy prediction

SMILES: CC(C)(C)NC(=O)C1CCN([C@H]2C[C@H]3CC[C@@H](C2)N3c2nc(C(F)(F)F)no2)CC1 [Example 1, N-tert-butyl-1-{(1R,3r,5S)-8-[3-(trifluoromethyl)-1,2,4-oxadiazol-5-yl]-8-azabicyclo[3.2.1]octan-3-yl}piperidine-4-carboxamide]
- EC50 ([1]; CHO cells stably expressing human M1, phospho-ERK1/2, read-out: pEC50 M1 (converted)): 0.0676 µM
- EC50 ([1]; as quoted in FIG. 1 legend, 50% target engagement, read-out: recombinant human EC50 (M1) (converted)): 0.0652 µM
- EC50 ([1]; recombinant human EC50 (M1), as quoted in FIG. 1 legend, 50% target engagement): 0.086 µM
- percent correct responding in the reversal phase vs scPCP group ([2]; 1 mg/kg, P<0.05): increased percent correct responding
- percent correct responding in the reversal phase vs scPCP group ([2]; 3 mg/kg, P<0.05): increased percent correct responding
- percent correct responding in the reversal phase vs scPCP group ([2]; 10 mg/kg, P<0.01): increased percent correct responding
- fraction unbound [3]: 0.682
- predicted dose to reach the unbound brain exposure required for M1 agonist efficacy (M1 receptor; human, oral, 6 hours unbound brain exposure over recombinant M1 EC50): approx. 22 mg
- predicted human half-life (M1 receptor; human, predicted from allometric scaling): 15 h
- CI (clearance) (M1 receptor; [6]): 0.264 L/h/kg
- F (bioavailability) (M1 receptor; [6]): 0.61
- Ka (M1 receptor; [6]): 1
- V (M1 receptor; [6]): 5.9
- hepatocyte CLint at 1 μM [4]: 8 µL/min/1e6 cells
- hepatocyte CLint at 1 μM [5]: < 5 µL/min/1e6 cells
